Assay results published in patent EP0311193B1, “Antifungal fermentation product” (priority 1987, dated 1989).
Numbered stars: 1 amine (or outer) side, 2 acyl side, 3 side chain; on linkers, the order of the positions; unused ones are H or OH. Bridge positions count the residues as written; N and C are the ends. Square brackets hold non-standard residues; d marks the D form. Peptide text beside a SMILES is read from it. * marks the point of attachment. Orn(4R-OH,5R-OH) = O=C([C@H](C[C@@H](O)[C@@H](O)N[*:3])N[*:1])[*:2]; hTyr(3S-OH,4S-OH) = N[C@H](C(=O)O)[C@H](O)[C@@H](O)c1ccc(O)cc1; Pro(3S-OH,4S-Me) = C[C@H]1CN[C@H](C(=O)O)[C@H]1O; Gln(3R-OH) = NC(=O)C[C@@H](O)[C@H](N)C(=O)O; Hyp = O=C(O)[C@@H]1C[C@@H](O)CN1; X1 = CCC(C)CC(C)CCCCCCCCC(=O)*

How the values were obtained:
Candida albicans [1] = assay: agar dilution assay (MIC), expanded panel of strains; assay type: cell-based; details: against 5 of 34 different strains of Candida albicans, 28°C, 48 hours
Protocol: The activity may be seen in an agar dilution assay employing a yeast nitrogen base dextrose agar medium. In carrying out the assay, Compound I was solubilized in 10 percent dimethyl sulfoxide (DMSO) supplemented with one drop of Tween 20. Twofold dilutions were made with sterile distilled water/10 percent DMSO to obtain final drug concentrations in the agar dilution assay plates ranging from 128 to 0.06 µg/ml.
The yeast cultures, maintained in yeast maltose (YM) broth, were transferred to fresh YM medium and incubated overnight at 35°C with shaking (250 rpm). After incubation, each culture was diluted in sterile saline to yield a final concentration of 3x10⁵ to 3x10⁶ colony forming units (CFU)/ml.
Each prepared plate was inoculated using a Denley Multipoint Inoculator (Denley, Sussex, England) which delivers approximately 0.001 milliliter to the agar surface resulting in inoculation of from 3x10² to 3x10³ CFUs. The plates were incubated at 28°C for 48 hours. The minimum inhibitory concentrations (MICs) were recorded as the lowest concentrations of drug showing no growth or less than three CFU/spot.
In a similar assay, Compound I was tested against an expanded panel of 34 different strains of Candida albicans and 13 different strains of Candida parapsilosis.

filamentous fungi = assay: disc diffusion antifungal assay, filamentous fungi; assay type: cell-based; details: disc diffusion against the listed filamentous fungi; 28°C or 37°C, 24 hours
Protocol: (§1) This may be seen in an antifungal assay employing a disc diffusion method against yeasts and filamentous fungi (molds).
(§2) In the disc diffusion method, seeded assay plates are first prepared in one of the following manners according to the type of organism.
Inocula for filamentous fungi are prepared by scraping the surface of stock plates maintained on potato dextrose agar with a moistened sterile dacron swab. The spores and mycelia are then suspended in 10 milliliters of sterile potato dextrose broth and adjusted to 70 percent transmission at 660 nm.
(§3) For three strains of Candida albicans and one strain of Saccharomyces cerevisiae, sterile saline is employed in place of potato dextrose broth. Assay plates are prepared by dilution the inoculum into appropriate molten agar medium, cooled to 45°C to obtain a final concentration of 4 percent (volume/volume).
(§4) The seeded agar media thus prepared are dispensed into petri dishes for assays (11 milliliters per dish).
(§5) The samples to be tested for production of antifungal agent are applied to 6.2 mm. filter paper discs (25 microliter/disc) and air dried at 24°C. When the sample to be tested is a crude broth, it may be centrifuged prior to application. […] Following incubation, the inhibition zones are measured and recorded. […]

yeasts = assay: disc diffusion antifungal assay, yeasts; assay type: cell-based; details: disc diffusion against the listed yeasts; 28°C or 37°C, 24 hours
Protocol: as §1, §2
Inocula for yeasts are prepared from overnight broth cultures then diluted into potato dextrose […] to a final concentration of either 40 percent or 70 percent transmission at 660 nm.
as §3, §4
as §5, with “application. The discs bearing the material to be tested are then applied employing sterile conditions to the seeded assay plates and the samples rewet with 25 percent sterile aqueous dimethylsulfoxide (25 µl/disc).” for “application.”

Candida albicans [2] = assay: mice experimentally infected with Candida albicans; assay type: in vivo
Excerpt: These properties point to a new antifungal drug with great potential in the therapy of human mycotic infections.

red blood cell = assay: titration/hemolysis assay (red blood cell lysis); details: highest drug concentration that did not lyse the red blood cells; 25°C, two hours; range tested 0.39 to 400 µg/ml in 5 percent dextrose
Protocol: Concentration of drug in the range of from 0.39 to 400 µg/ml in 5 percent dextrose and a drug free control were employed.
In carrying out the determination, the assay tubes prepared by mixing together 2 milliliters of appropriate drug dilution and 0.5 milliliter of red blood cell suspension were gently shaken to mix the contents and then the tubes were incubated at 25°C for two hours. At the end of this time, the tubes were examined visually for complete or partial red blood cell hemolysis and compared to a drug free control.

Row | SMILES | MIC (Candida albicans [1]) | antifungal properties (inhibition zones) (filamentous fungi) | antifungal properties (inhibition zones) (yeasts) | eradication of Candida albicans from kidneys (Candida albicans [2]; kidneys of experimentally infected mice) | survival of mice infected with Candida albicans (Candida albicans [2]; mice infected with Candida albicans) | minimum lytic concentration (MLC) (red blood cell)
1 | CCC(C)CC(C)CCCCCCCCC(=O)N[C@H]1C[C@@H](O)[C@@H](O)NC(=O)[C@@H]2[C@@H](O)[C@@H](C)CN2C(=O)[C@H]([C@H](O)CC(N)=O)NC(=O)[C@H]([C@H](O)[C@@H](O)c2ccc(O)cc2)NC(=O)[C@@H]2C[C@@H](O)CN2C(=O)[C@H]([C@@H](C)O)NC1=O (stereo partly drawn) [Compound I, 1-[(4R, 5R) 4,5-dihydroxy N²-(10,12-dimethyl-1-oxotetradecyl)-L-ornithine]-5-(threo-3-hydroxy-L-glutamine)echinocandin B] (X1-[Orn(4R-OH,5R-OH)]T[Hyp][hTyr(3S-OH,4S-OH)][Gln(3R-OH)][Pro(3S-OH,4S-Me)]; lactam 1-C) | > 1 µg/mL | good antifungal properties | good antifungal properties | eradicate Candida albicans from kidneys | significantly prolong the survival | 
2 | C[C@@H]1[C@H](O)[C@@H](C)/C=C/C=C/C=C/C=C/C=C/C=C/C=C/[C@H](O[C@@H]2O[C@H](C)[C@@H](O)[C@H](N)[C@@H]2O)C[C@@H]2O[C@](O)(C[C@@H](O)C[C@@H](O)[C@H](O)CC[C@@H](O)C[C@@H](O)CC(=O)O[C@H]1C)C[C@H](O)[C@H]2C(=O)O [amphotericin B] |  |  |  |  |  | 12.5 µg/mL
